Experimental data reported in patent publication US5512564A, “Tricyclic thiazole and oxazole derivatives and pharmaceutical agents containing them” (priority 1991, dated 1996).

Target: T1, purified RT from HIV-1 (Human immunodeficiency virus type 1 group M subtype B, UniProt P04585)
T1 construct: purified RT from HIV-1; made in house; host or cells: E. coli
Assay: Inhibition of Reverse Transcriptase (3H-thymidine-5'-triphosphate incorporation, 18mer oligonucleotide primer)
Type: biochemical
Conditions: concentration causing 50% inhibition of the RT activity; HIV-1 RT expressed in E. coli
Method: The screening test system comprises the purified RT from HIV-1 which was expressed by genetic engineering methods in E. coli as well as the components of the initiation complex and site complementary 18mer oligonucleotide as the primer. The ^3 H!-thymidine-5'-triphosphate incorporation was measured by counting in a β counter. The IC50 value is given in the following table for the investigated compounds. This value corresponds to that concentration of the test substance which causes a 50% inhibition of the RT activity.

Row | Compound | IC50
1 | O=C1c2cccnc2C2(c3ccccc3)SCCN12 (stereo not drawn) [Example 2, 3a-Phenyl-2,3a-Dihydro-1H-3-Thia-4,8a-Diaza-Cyclopenta a!Inden-8-One] | 3.3 µM
2 | Cc1cccc(C23SCCN2C(=O)c2cccnc23)c1 (stereo not drawn) [Example 13, 3a-m-Tolyl-2,3a-Dihydro-1H-3-Thia-4,8a-Diaza-Cyclopenta a!Inden-8-One] | 4 µM
3 | Cc1ccnc(C23SCCN2C(=O)c2cccnc23)c1 (stereo not drawn) [Example 8, 3a-(4-Methyl-Pyridin-2-Yl)-2,3a-Dihydro-1H-3-Thia-4,8a-Diaza-Cyclopenta a!I nden-8-One] | 4.6 µM
4 | O=C1c2cccnc2C2(c3ccccn3)SCCN12 (stereo not drawn) [Example 9, 3a-Pyridin-2-Yl-2,3a-Dihydro-1H-3-Thia-4,8a-Diaza-Cyclopenta a!Inden-8-One] | 23 µM
5 | Cc1cc(C)nc(C23SCCN2C(=O)c2cccnc23)c1 (stereo not drawn) [Example 11, 3a-(4,6-Dimethyl-Pyridin-2-Yl)2,3a-Dihydro-1H-3-Thia-4,8a-Diaza-Cyclopenta a!Inden-8-One] | 3.9 µM
6 | Cc1cccc(C23SCCN2C(=O)c2cccnc23)n1 (stereo not drawn) [Example 10, 3a-(6-Methyl-Pyridin-2-Yl)-2,3a-Dihydro-1H-3-Thia-4,8a-Diaza-Cyclopenta a!I nden-8-One] | 6.6 µM
7 | O=C1c2ccncc2C2(c3ccccc3)SCCN12 (stereo not drawn) [Example 7, 3a-Phenyl-2,3a-Dihydro-1H-3-Thia-5,8a-Diaza-Cyclopenta a!Inden-8-One] | 17 µM
8 | Cc1cc(C)cc(C23SCCN2C(=O)c2nccnc23)c1 (stereo not drawn) [Example 5, 3a-(3,5-Dimethyl-Phenyl)-2,3a-Dihydro-1H-3-Thia-4,7,8a-Triaza-Cyclopenta a! Inden-8-One] | 40 µM

Test system: not given
Assay: not given
Conditions: treatment of AIDS; Hirsch, M. S. (1988); cited from earlier work

Row | Compound | therapeutic range (in words)
9 | Cc1cn([C@H]2C[C@H](N=[N+]=[N-])[C@@H](CO)O2)c(=O)[nH]c1=O [AZT, 3'-azido-3'-deoxythymidine] | very narrow therapeutic range
